Results reported in PubChem BioAssay AID1919016 (Molecular Pharmacology Branch, DTP, NCI, 2023).

System: NCI-H196 complex spheroid growth, percent test/control
Test: Anticancer human tumor NCI-H196 cell line growth inhibition [AhR];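 further: seven days of drug exposure starting three days after plating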;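 on viability, T/C: 100% = DMSO vehicle control wells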
Details: for IC50: curve of first compound; for viability, T/C: stronger effect = lower value
Method in brief: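 Complex tumor spheroids co-cultured with HUVEC and human MSC stroma; AhR antagonists tested in combination with standard-of-care and investigational agents. Top concentration at or near clinical Cmax (else 10 microM), half-log dilutions; growth expressed as percent test/control.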

[1] = second compound 0.1 µM, first compound 0.0316 µM
[2] = second compound 0.1 µM, first compound 0.1 µM
[3] = second compound 0.1 µM, first compound 0.316 µM
[4] = second compound 0.1 µM, first compound 1 µM
[5] = second compound 0.1 µM, first compound 3.16 µM
[6] = second compound 0.1 µM, first compound 10 µM
[7] = second compound 0.316 µM, first compound 0.0316 µM
[8] = second compound 0.316 µM, first compound 0.1 µM
[9] = second compound 0.316 µM, first compound 0.316 µM
[10] = second compound 0.316 µM, first compound 1 µM
[11] = second compound 0.316 µM, first compound 3.16 µM
[12] = second compound 0.316 µM, first compound 10 µM
[13] = second compound 1 µM, first compound 0.0316 µM
[14] = second compound 1 µM, first compound 0.1 µM
[15] = second compound 1 µM, first compound 0.316 µM
[16] = second compound 1 µM, first compound 1 µM
[17] = second compound 1 µM, first compound 3.16 µM
[18] = second compound 1 µM, first compound 10 µM
[19] = second compound 3.16 µM, first compound 0.0316 µM
[20] = second compound 3.16 µM, first compound 0.1 µM
[21] = second compound 3.16 µM, first compound 0.316 µM
[22] = second compound 3.16 µM, first compound 1 µM
[23] = second compound 3.16 µM, first compound 3.16 µM
[24] = second compound 3.16 µM, first compound 10 µM
[25] = second compound 10 µM, first compound 0.0316 µM
[26] = second compound 10 µM, first compound 0.1 µM
[27] = second compound 10 µM, first compound 0.316 µM
[28] = second compound 10 µM, first compound 1 µM
[29] = second compound 10 µM, first compound 3.16 µM
[30] = second compound 10 µM, first compound 10 µM
[31] = second compound 0.1 µM, first compound 0.00316 µM
[32] = second compound 0.1 µM, first compound 0.01 µM
[33] = second compound 0.316 µM, first compound 0.00316 µM
[34] = second compound 0.316 µM, first compound 0.01 µM
[35] = second compound 1 µM, first compound 0.00316 µM
[36] = second compound 1 µM, first compound 0.01 µM
[37] = second compound 3.16 µM, first compound 0.00316 µM
[38] = second compound 3.16 µM, first compound 0.01 µM
[39] = second compound 10 µM, first compound 0.00316 µM
[40] = second compound 10 µM, first compound 0.01 µM

SMILES	IC50 (second compound 0.1 µM) [µM]	IC50 (second compound 0.316 µM) [µM]	IC50 (second compound 1 µM) [µM]	IC50 (second compound 3.16 µM) [µM]	IC50 (second compound 10 µM) [µM]	viability, T/C [1] [%]	viability, T/C [2] [%]	viability, T/C [3] [%]	viability, T/C [4] [%]	viability, T/C [7] [%]	viability, T/C [8] [%]	viability, T/C [9] [%]	viability, T/C [10] [%]	viability, T/C [13] [%]	viability, T/C [14] [%]	viability, T/C [15] [%]	viability, T/C [19] [%]	viability, T/C [20] [%]	viability, T/C [25] [%]	viability, T/C [26] [%]	other results
CC(C)c1c(-c2ccccc2)nc2c(C#N)c[nH]n2c1=O + CC(CO)NC(=O)c1cc(-c2ccc(Cl)cc2)nn(-c2cnn(C)c2)c1=O	> 10	> 10	> 10	> 10	> 10	118	107	111	105	116	128	109	112	111	114	117	109	111	116	127	viability, T/C [5]: 104%; viability, T/C [6]: 102%; viability, T/C [11]: 108%; viability, T/C [12]: 111%; viability, T/C [16]: 121%; viability, T/C [17]: 118%; viability, T/C [18]: 104%; viability, T/C [21]: 118%; viability, T/C [22]: 114%; viability, T/C [23]: 117%; viability, T/C [24]: 110%; viability, T/C [27]: 114%; viability, T/C [28]: 119%; viability, T/C [29]: 111%; viability, T/C [30]: 108%
COc1ccc([C@@H](O)c2cc(-c3ncnc4cc(N5CCOCC5)ccc34)c(F)cc2Cl)nn1 + CC(CO)NC(=O)c1cc(-c2ccc(Cl)cc2)nn(-c2cnn(C)c2)c1=O	> 10	> 10	> 10	> 10	> 10	102	91.2	94.5	80.3	109	100	94.9	83.3	107	106	102	108	113	115	104	viability, T/C [5]: 75.6%; viability, T/C [6]: 82.4%; viability, T/C [11]: 80.2%; viability, T/C [12]: 75.8%; viability, T/C [16]: 89.3%; viability, T/C [17]: 77%; viability, T/C [18]: 72.8%; viability, T/C [21]: 114%; viability, T/C [22]: 96.1%; viability, T/C [23]: 84.1%; viability, T/C [24]: 78.7%; viability, T/C [27]: 95.4%; viability, T/C [28]: 84.5%; viability, T/C [29]: 75.8%; viability, T/C [30]: 72.3%
CC[C@@]1(O)C(=O)OCc2c1cc1n(c2=O)Cc2cc3c(CN(C)C)c(O)ccc3nc2-1 + Cc1ccccc1N=Nc1ccc(NC(=O)c2ccnn2C)c(C)c1	> 0.1	> 0.1	> 0.1	> 0.1	> 0.1	112	102			93.6	96.9			99.7	93.5		91.1	103	102	97	viability, T/C (second compound 0.1 µM, first compound 0.000316 µM): 92.3%; viability, T/C (second compound 0.1 µM, first compound 0.001 µM): 111%; viability, T/C [31]: 93.5%; viability, T/C [32]: 88.8%; viability, T/C (second compound 0.316 µM, first compound 0.000316 µM): 105%; viability, T/C (second compound 0.316 µM, first compound 0.001 µM): 103%; viability, T/C [33]: 98.6%; viability, T/C [34]: 90.8%; viability, T/C (second compound 1 µM, first compound 0.000316 µM): 101%; viability, T/C (second compound 1 µM, first compound 0.001 µM): 112%; viability, T/C [35]: 98.3%; viability, T/C [36]: 98.4%; viability, T/C (second compound 3.16 µM, first compound 0.000316 µM): 97.2%; viability, T/C (second compound 3.16 µM, first compound 0.001 µM): 101%; viability, T/C [37]: 109%; viability, T/C [38]: 86.5%; viability, T/C (second compound 10 µM, first compound 0.000316 µM): 95%; viability, T/C (second compound 10 µM, first compound 0.001 µM): 97.7%; viability, T/C [39]: 89%; viability, T/C [40]: 98.3%
COc1cc(C2c3cc4c(cc3C(OC3OC5COC(C)OC5C(O)C3O)C3COC(=O)C23)OCO4)cc(OC)c1O (stereo not given) + Cc1ccccc1N=Nc1ccc(NC(=O)c2ccnn2C)c(C)c1	> 10	> 10	> 10	> 10	> 10	97.3	93.5	87.4	86.2	92.1	95	96.8	89.8	93.5	94.6	93.5	89	94.7	85.7	84.3	viability, T/C [5]: 87.9%; viability, T/C [6]: 76.8%; viability, T/C [11]: 91.2%; viability, T/C [12]: 75.6%; viability, T/C [16]: 92.1%; viability, T/C [17]: 100%; viability, T/C [18]: 74.3%; viability, T/C [21]: 91.4%; viability, T/C [22]: 79.5%; viability, T/C [23]: 87.1%; viability, T/C [24]: 75.3%; viability, T/C [27]: 89.3%; viability, T/C [28]: 93%; viability, T/C [29]: 88%; viability, T/C [30]: 78.9%
COc1cccc2c1C(=O)c1c(O)c3c(c(O)c1C2=O)CC(O)(C(=O)CO)CC3OC1CC(N)C(O)C(C)O1 (stereo not given) + Cc1ccccc1N=Nc1ccc(NC(=O)c2ccnn2C)c(C)c1	0.665	0.662	0.668	0.646	0.875	113	102	79.4	36.2	101	100	76.8	36.7	99.5	105	78.5	91.5	93.8	97.2	92.2	viability, T/C [5]: 3.08%; viability, T/C [6]: 7.85%; viability, T/C [11]: 1.54%; viability, T/C [12]: 5.07%; viability, T/C [16]: 35.9%; viability, T/C [17]: 2.43%; viability, T/C [18]: 8.49%; viability, T/C [21]: 76.6%; viability, T/C [22]: 34.7%; viability, T/C [23]: 2.43%; viability, T/C [24]: 13%; viability, T/C [27]: 90.7%; viability, T/C [28]: 44.3%; viability, T/C [29]: 2.3%; viability, T/C [30]: 12.7%
Nc1ncn(C2CC(O)C(CO)O2)c(=O)n1 (stereo not given) + Cc1ccccc1N=Nc1ccc(NC(=O)c2ccnn2C)c(C)c1	> 1	> 1	> 1	> 1	> 1	94.7	94.4	104	96.6	108	103	108	96.4	106	101	84.9	105	86.4	87.6	86.7	viability, T/C [31]: 92.6%; viability, T/C [32]: 105%; viability, T/C [33]: 104%; viability, T/C [34]: 104%; viability, T/C [35]: 88.7%; viability, T/C [36]: 104%; viability, T/C [16]: 94.5%; viability, T/C [37]: 97%; viability, T/C [38]: 86.9%; viability, T/C [21]: 92.5%; viability, T/C [22]: 89.8%; viability, T/C [39]: 90%; viability, T/C [40]: 97.3%; viability, T/C [27]: 78.7%; viability, T/C [28]: 83%
